Experimental data from patent US20210361570A1, “IN SITU GELLING POLYSACCHARIDE-BASED NANOPARTICLE HYDROGEL COMPOSITIONS, AND METHODS OF USE THEREOF” (McMaster University, priority 2020, published 2021).
Each block holds one molecule with its values, some of them ahead of it.

What was measured:
C. elegans = assay: 6-OHDA Parkinsonian model, electrotaxis movement testing; assay type: in vivo; settings: L-DOPA free or loaded in 25 w/v % hydrogels (DS=0.5)
Protocol: The stability of L-DOPA delivered using the SNP-CHO@CMCh or SNP-APBA@CMCh bulk hydrogels was assessed using an in vivo C. elegans assay. Wild-type late larval stage worms were exposed to 30 mM 6-OHDA in ascorbic acid for 1 hr to induce dopaminergic neurodegeneration. After 24 hours, worms were added to a 12-well plate in which each well contains 400 μL of SNP-CHO@CMCh or SNP-APBA@CMCh bulk hydrogel as well as E. coli (for food) to form a 3 mL liquid culture in which worms are continuously exposed to released L-DOPA.
Worms were sampled at various time points (0 h, 4 h, 8 h, 12 h, 24 h, 48 h) to assess movement. Motility changes, assessed based on the average speed of the worms in mm/s (minimum n=20 worms per sample and time point tested), were measured using an in-house voltage-induced electrotaxis microfluidic assay developed to quantify drug induced dopaminergic neuron signal-mediated movement. In addition to the test sample (Group 1), control groups of no 6-OHDA, no hydrogel (Group 2, untreated control), 6-OHDA, no hydrogel (Group 3, drug control); 6-OHDA, blank hydrogel (Group 4, material control); and 6-OHDA, drug(s) without hydrogel (Group 5, delivery vehicle control) were assessed (minimum n=20 worms/group). L-DOPA was loaded in both SNP-CHO@CMCh and SNP-APBA@CMCh 25 w/v % hydrogels (DS=0.5) at 3 or 9 […].

[1] = L-DOPA anti-oxidation in hydrogels (visual colour); assay type: physicochemical; settings: 3 mg L-DOPA, MES pH 6 or PBS pH 7.4, 12 h at 37° C.
Protocol: 200 μL of 25 w/v % (DS 0.5) SNP-CHO or SNP-APBA was combined with 200 μL of CMCh (pH 7) to form a 400 μL bulk hydrogel in a 12 plate well. Gels were loaded with 3 mg of L-DOPA by suspending the powered drug into the aqueous SNP precursor before gelling. The gels were submerged in 3 mL of 0.1M MES (pH 6) buffer or 10 mM PBS (pH 7.4) buffer. Oxidation of L-DOPA was assessed visually, with the formation of dark yellow-brown and black precipitates indicating L-DOPA oxidation to its dopaquinone and dopachrome polymer forms, and assessed with respect to controls of L-DOPA at the same concentration in each of the respective buffers (without a hydrogel).

[2] = system: Sprague-Dawley rats, MK-801 model of schizophrenia; assay: MK-801 schizophrenia model, social interaction behavioral testing; assay type: in vivo, rat
Protocol: Age-matched male Sprague-Dawley rats (250-300 g, Charles River Canada, St. Constant, QC, Canada) received care that complied with protocols approved by the Animal Research Ethics Board at McMaster University and the guidelines of the Canadian Council on Animal Care. Animals were housed individually in standard cages on a reverse 12 h light cycle. Upon arrival, animals were habituated to their holding room for 1 week, followed by a week of handling (touching and petting for at least 5 minutes each, every other day) prior to any testing. Animals were handled regularly throughout the duration of all experimentation (2-3 times per week outside of experiments) and housed in a room maintained at 22° C. with 50% humidity and access to food and water ad libitum. The animal masses at the end of the experiments were between 400-550 g.
For the in situ animal injections, all drugs were dissolved in artificial cerebrospinal fluid (aCSF) solution formulated in-lab comprised of 120 mM NaCl, 4.8 mM KCl, 1.2 mM KH2PO4, 1.2 mM MgSO4, 25 mM NaHCO3, 2.5 mM CaCl2), and 10 mM D-glucose. Further, PAOPA (with or without hydrogel formulation) was administered at concentration of 0.5 mg/kg intranasally, selected based on effective concentrations observed via dose-dependent intraperitoneal (IP) administrations. The PAOPA was added equally to both the CMCh and the SNP solutions and allowed to sit for 24 h to allow for any polymer-drug interactions to occur before gelation. All precursor solutions were passed through a 0.45 µm filter (VWR) to sterilize them prior to injection into a live animal. […]
To administer the payload for the five experimental groups, a single rat was removed from its cage and placed into a closed anesthesia box with transparent sides for proper observation. Aerosolized isoflurane (with oxygen) was passed into the box until the rat was determined to be anesthetized via foot pinching reflex test. […]
Rats were assessed for social interaction with and without MK-801 and drug/formulation administration. […]

[3] = system: Sprague-Dawley rats, MK-801 model of schizophrenia; settings: PAOPA 1 mg/kg IP, literature; cited from earlier work
B16-F10 melanoma tumor = assay: In vivo anti-tumor test (relative tumor volume); parameters: species or system C57BL/6 mice; settings: 5.0 mg/kg DOX tail vein every three days, 10-day period
Protocol: (§1) The antitumor effect of DOX, DOX-Clusters (control), and Dox-iClusters was evaluated by tracking the relative tumor volume (V/V0) after treatment with the nanocluster nanogels. C57BL/6 mice were injected intradermally with B16-F10 melanoma tumor cells, allowing the tumors to grow to ˜20 mm^3 by day 7 after the injections. The mice were treated by tail vein injection of 200 μL of PBS, DOX, DOX-iCluster and DOX-Cluster every three days (5.0 mg/kg of DOX for all formulations), after which both the tumor size and body weight were monitored regularly over a 10-day period.

[4] = Body weight in the in vivo anti-tumor test; parameters: species or system C57BL/6 mice; settings: 5.0 mg/kg DOX tail vein every three days, ten days
Protocol: as §1

L-DOPA oxidation (colour) [1]: became black with oxidation
Structure (SMILES): N[C@@H](Cc1ccc(O)c(O)c1)C(=O)O [L-DOPA, 3,4-dihydroxy-L-phenylalanine]
duration of improved swimming speed / motility vs 6-OHDA control (C. elegans): 4 h

Structure (SMILES): NC(=O)CN1CC[C@@H](NC(=O)[C@@H]2CCCN2)C1=O [PAOPA]
social interaction deficits ([2]; 0.5 mg/kg IN 30 minutes before MK-801, assessed 30 minutes post-MK-801): expected attenuation of social interaction deficits
social interaction deficits ([2]; 0.5 mg/kg IN, MK-801 challenge 24 hours later): the benefits of PAOPA were no longer observed
total social interaction time relative to untreated control ([2]; no MK-801, intranasal, PAOPA 0.5 mg/kg or unloaded hydrogel): neither increased nor decreased total interaction times
social interaction time [3]: did not affect social interaction time

Structure (SMILES): COc1cccc2c1C(=O)c1c(O)c3c(c(O)c1C2=O)C[C@@](O)(C(=O)CO)C[C@@H]3O[C@H]1C[C@H](N)[C@H](O)[C@H](C)O1.Cl [free DOX, doxorubicin hydrochloride]
relative tumor volume (V/V0) (B16-F10 melanoma tumor): 24 × volume increase
body weight [4]: significantly reduced body weight
